The results in this text go back to article PMC3427316 (PLoS ONE, 2012).

In experiment [1] the target is NA of D0 isolate A/Paris/7976/2010 (223I 100%, 275H 100%) (Influenza A virus, UniProt V9TJZ0). The format is biochemical, influenza A(H1N1)pdm09 virus. Conditions: read-out: Ki +/− SD.
The next experiment has as its system H1N1pdm09 virus. Conditions: human, in vivo.

Regarding `CCC(CC)O[C@@H]1C=C(C(=O)O)C[C@H](N)[C@H]1NC(C)=O` [OC, oseltamivir carboxylate], in experiment [1], the Ki stood at 0.28 nM. For `CC(=O)N[C@H]1[C@H]([C@H](O)[C@H](O)CO)OC(C(=O)O)=C[C@@H]1N=C(N)N` [ZAN, zanamivir], in the experiment with H1N1pdm09 virus, the “impact on viral shedding” value is “no impact” and the symptoms entry was “did not improve”.
